Experiment [1] has as its system NMDA receptor. The experiment in a line: Antagonism of NMDA-induced depolarization of rat cortical wedges. The experiment is classed as cell-based. The note with it: NMDA 40 μM, mean ± standard error (n = 3), read-out: IC50 NMDA, antagonism of cortical wedge depolarization. The procedure: (§1) The depolarization of rat cortical wedges was used to test the selectivity and potency of the formula I compounds as AMPA antagonists using a technique similar to that described by Harrison and Simmonds. Harrison and Simmonds, Bri. J. Pharmacol., 84, 381-391 (1984). Generally, 4-ml aliquots of NMDA (40 μM), AMPA (40 μM), and kainate (10 μM) were superfused (2 ml/min.) on the grey matter at intervals of 15-20 minutes until stable responses were attained. The tissue was then exposed for 15 minutes to various concentrations of the formula I compounds before retesting the agonists. The IC50 values were calculated from linear regression of log dose-response curves, each point the mean of at least three observations on separate slices from more than one animal.

In experiment [2] the target is AMPA receptor. The experiment in a line: Radioligand binding: [^3 H]AMPA binding with crude membranes of rat forebrain. The procedure:
(§2) The formula I compounds were tested for their ability to inhibit NMDA, AMPA, and kainic acid receptor binding to rat membranes in a radioligand binding assay using [^3 H]CGS19755, [^3 H]AMPA, and [^3 H]KA. For all radioligand binding assays, male Sprague-Dawley rats were used. […] Non-specific binding was determined using 10 μM L-glutamate. Samples were incubated in an ice-bath for 30 minutes, and bound ligand was separated from the free ligand by rapid filtration through WHATMAN GF/B glass fiber filters. Murphy et al, British J. Pharmacol., 95, 932-938 (1988). Kainate binding was performed using washed synaptosomal membranes from the rat forebrain as described by Simon et al. Simon et al, J. Neurochem., 26, 141-147 (1976). Tritiated kainate (5 nM) was added to 50 mM Tris-HCl buffer (pH 7.4 at 4° C.) containing 200-300 μg/ml of tissue protein. Samples were incubated for 30 minutes in an ice-bath, then rapidly filtered using a Brandel cell harvester and WHATMAN GF/C filters. Filters were washed twice with 3 ml of cold buffer. Non-specific binding was determined using 100 μM non-labeled kainate. The binding of [^3 H]AMPA (5 nM) was conducted with crude membranes of rat forebrain in the presence of 100 mM KSCN as described by Nielson et al. Nielson et al, Eur. J. Med. Chem. Chim. Ther., 21, 433-437 (1986). Non-specific binding was determined with 10 μM non-labeled AMPA. The concentration of the formula I compound that inhibited 50% binding (IC50, mean ±standard error, n=3) as calculated by linear regression of displacement data transformed to the Hill equation as described by Bennett. Bennett, Neurotransmitter Receptor Binding, 57-90 (1978).

Experiment [3] deals with kainic acid (KA) receptor. Briefly: Radioligand binding: tritiated kainate binding with washed synaptosomal membranes from the rat forebrain. The note with it: tritiated kainate 5 nM, pH 7.4, mean ± standard error (n = 3), values marked ^c single experiment. The procedure:
as §2

The test system of experiment [4] is AMPA receptor. The experiment in a line: Antagonism of AMPA-induced depolarization of rat cortical wedges. In kind it is cell-based. The note with it: AMPA 40 μM, mean ± standard error (n = 3), read-out: IC50 AMPA, antagonism of cortical wedge depolarization. The procedure: as §1
Experiment [5] addresses NMDA receptor. The experiment in a line: Radioligand binding: displacement of [^3 H]CGS19755 from synaptosomal membranes of rat forebrain (NMDA receptor affinity). The conditions noted are these: [^3 H]CGS19755 10 nM, mean ± standard error (n = 3), values marked ^c single experiment. The procedure:
as §2

The subject of experiment [6] is kainic acid (KA) receptor. Briefly: Antagonism of kainate-induced depolarization of rat cortical wedges. In kind it is cell-based. The note with it: kainate 10 μM, mean ± standard error (n = 3). The procedure: as §1
The mark [7] stands for this setting: Table I, racemic, [^3 H]AMPA 5 nM, 100 mM KSCN, mean ± standard error (n = 3), values marked ^c single experiment, read-out: IC50 AMPA, receptor binding.
Where [8] appears, read: Table II, enantiopure, [^3 H]AMPA 5 nM, 100 mM KSCN, mean ± standard error (n = 3), values marked ^c single experiment, read-out: IC50 AMPA, receptor binding.

The structures appear in SMILES notation.

What is called IC50 is the concentration needed to halve the response being measured. On to `O=C(O)[C@@H]1C[C@H]2C[C@H](CCS(=O)(=O)O)CC[C@H]2CN1` (racemic) [Compound 12, (3SR,4aRS,6RS,8aRS)-6-(2-Sulfoethyl)decahydroisoquinoline-3-carboxylic Acid], for which the IC50 is above 100 µM in the experiment on NMDA receptor [1] (Table III, racemic); 11.1 µM at AMPA receptor [2] (setting [7]); 31.4 ± 1.7 µM in the experiment on AMPA receptor [4] (Table III, racemic); 61.8 µM at NMDA receptor [5] (Table I, racemic). The “IC50 KA, receptor binding” value in experiment [3] (Table I, racemic) is above 100 µM. Also, the “IC50 KA, antagonism of cortical wedge depolarization” value (shortened to “IC50 KA, antagonism”) in experiment [6] (Table III, racemic) is 100 µM.

Regarding `O=C(O)CC[C@H]1CC[C@H]2CN[C@H](C(=O)O)C[C@H]2C1` (racemic) [Compound 11, (3SR,4aRS,6RS,8aRS)-6-(2-Carboxyethyl)-decahydroisoquinoline-3-carboxylic Acid], the IC50 in the experiment with NMDA receptor [1] (Table III, racemic) turned out to be 57 ± 4.4 µM; on AMPA receptor [2] (setting [7]) it was 27.8 ± 0.6 µM; in the experiment with AMPA receptor [4] (Table III, racemic) it was 42 ± 6.5 µM; at NMDA receptor [5] (Table I, racemic) it was 43.9 ± 4.1 µM. The “IC50 KA, receptor binding” value in experiment [3] (Table I, racemic) was above 100 µM. The “IC50 KA, antagonism” value in experiment [6] (Table III, racemic) is above 100 µM.

For the compound `O=C(O)[C@@H]1C[C@H]2C[C@@H](COCc3nnn[nH]3)CC[C@H]2CN1` (racemic) [Compound 7, (3SR,4aRS,6SR,8aRS)-6-[(1(2)H-Tetrazole-5-yl)methoxymethyl]decahydroisoquinoline-3-carboxylic Acid], the IC50 is above 100 µM on NMDA receptor [1] (Table III, racemic); above 10 µM at AMPA receptor [2] (setting [7]); 16 ± 1.4 µM on AMPA receptor [4] (Table III, racemic); above 10 µM on NMDA receptor [5] (Table I, racemic). The “IC50 KA, receptor binding” value in experiment [3] (Table I, racemic) was above 10 µM. Also, the “IC50 KA, antagonism” value in experiment [6] (Table III, racemic) was above 100 µM.

For the compound `O=C(O)[C@@H]1C[C@H]2C[C@@H](C=Cc3nsnc3O)CC[C@H]2CN1` (racemic) [Compound 20, (3SR,4aRS,6SR,8aRS)-6-[2-(3-Hydroxy-1,2,5-thiadiazole-4-yl)ethenyl]decahydroisoquinoline-3-carboxylic Acid], the IC50 with NMDA receptor [1] (Table III, racemic) was above 100 µM; at AMPA receptor [2] (setting [7]), 83.4 µM; in the experiment with AMPA receptor [4] (Table III, racemic), 100 µM; on NMDA receptor [5] (Table I, racemic) it was above 100 µM. In experiment [3] (Table I, racemic), the “IC50 KA, receptor binding” value is above 100 µM. In experiment [6] (Table III, racemic), the “IC50 KA, antagonism” value is above 100 µM.

In the case of `O=C(CC[C@H]1CC[C@H]2CN[C@H](C(=O)O)C[C@H]2C1)Nc1nn[nH]n1` (relative stereo) [Compound 17, (3SR,4aRS,6RS,8aRS)-6-[2-(N-(1(2)H-Tetrazole-5-yl)carboxamido)ethyl]decahydroisoquinoline-3-carboxylic Acid], the IC50 on AMPA receptor [2] (setting [7]) was 45.7 µM; at NMDA receptor [5] (Table I, racemic), above 100 µM. For the same compound, the “IC50 KA, receptor binding” value in experiment [3] (Table I, racemic) is above 100 µM.

As to `O=C(O)[C@@H]1C[C@H]2C[C@@H](CCCc3nnn[nH]3)CC[C@H]2CN1` (racemic) [Compound 6, (3SR,4aRS,6SR,8aRS)-6-[(1(2)H-Tetrazole-5-yl)prop-1-yl]decahydroisoquinoline-3-carboxylic Acid], the IC50 on AMPA receptor [2] (setting [7]) worked out at 16.8 ± 0.46 µM; at AMPA receptor [4] (Table III, racemic), 22 ± 3.8 µM; on NMDA receptor [5] (Table I, racemic), 27 ± 9.9 µM. Moreover, the “IC50 KA, receptor binding” value in experiment [3] (Table I, racemic) worked out at 18.65 ± 0.33 µM.

Consider `O=C(O)[C@@H]1C[C@H]2C[C@H](CCc3nn[nH]n3)CC[C@H]2CN1` (relative stereo) [Compound 2, (3SR,4aRS,6SR,8aRS)-6-[2-(1(2)H-Tetrazole-5-yl)ethyl]decahydroisoquinoline-3-carboxylic Acid], for which the IC50 in the experiment on NMDA receptor [1] (Table III, racemic) is above 100 µM; at AMPA receptor [2] (setting [7]), 59.6 ± 4.3 µM; at NMDA receptor [5] (Table I, racemic), 60.6 ± 24.8 µM. In addition, in experiment [3] (Table I, racemic), the “IC50 KA, receptor binding” value came out at 180.0 ± 22.1 µM.

On to `O=C(O)[C@@H]1C[C@H]2C[C@@H](CCc3nn[nH]n3)CC[C@H]2CN1` (relative stereo) [Compound 1, (3 SR,4aRS,6RS,8aRS)-6-[2-(1(2)H-Tetrazole-5-yl)ethyl]decahydroisoquinoline-3-carboxylic Acid], for which the IC50 in the experiment with NMDA receptor [1] (Table III, racemic) was determined as 61.3 ± 3 µM; with AMPA receptor [4] (Table III, racemic) it was 6 ± 1 µM; at NMDA receptor [5] (Table I, racemic), 26.4 ± 1.95 µM. In experiment [3] (Table I, racemic), the “IC50 KA, receptor binding” value is 246.98 ± 7.5 µM. Further, the “IC50 KA, antagonism” value in experiment [6] (Table III, racemic) came to 31.7 ± 4.4 µM.

In the case of `O=C(O)[C@@H]1C[C@H]2C[C@H](CCc3nn[nH]n3)CC[C@H]2CN1` [Compound 22, (3S,4aR,6S,8a,R)-6-[2-(1(2)H-Tetrazole-5-yl)ethyl]decahydroisoquinoline-3-carboxylic Acid], the IC50 with NMDA receptor [1] (Table IV, enantiopure) is above 100 µM; at AMPA receptor [2] (setting [8]), 15.3 µM; with AMPA receptor [4] (Table IV, enantiopure), 21.9 ± 3.3 µM. Moreover, the “IC50 KA, receptor binding” value in experiment [3] (Table II, enantiopure) came out at 85.3 µM. Also, the “IC50 KA, antagonism” value in experiment [6] (Table IV, enantiopure) was found to be 28.9 ± 9.2 µM.

On to `O=C(O)[C@H]1C[C@@H]2C[C@H](CS(=O)(=O)c3nc[nH]n3)CC[C@@H]2CN1` [Compound 27, (3R,4aS,6R,8aS)-6-[(1(2-4)H-1,2,4-Triazole-5-yl)sulfonylmethyl]decahydroisoquinoline-3-carboxylic Acid], for which the IC50 is 23.6 µM at AMPA receptor [2] (setting [8]) and 60.9 µM at NMDA receptor [5] (Table II, enantiopure). For the same compound, the “IC50 KA, receptor binding” value in experiment [3] (Table II, enantiopure) is above 100 µM.

Consider `O=C(O)[C@@H]1C[C@H]2C[C@@H](CCCCc3nnn[nH]3)CC[C@H]2CN1` (racemic) [Compound 10, (3SR,4aRS,6SR,8aRS)-6-[(1(2)H-Tetrazole-5-yl)but-1-yl]decahydroisoquinoline-3-carboxylic Acid], for which the IC50 was above 100 µM on NMDA receptor [1] (Table III, racemic); 32 µM at AMPA receptor [2] (setting [7]); 27.6 ± 3.1 µM at AMPA receptor [4] (Table III, racemic); above 100 µM at NMDA receptor [5] (Table I, racemic). Further, the “IC50 KA, receptor binding” value in experiment [3] (Table I, racemic) is above 100 µM.

Regarding `CS(=O)(=O)NC(=O)CC[C@H]1CC[C@H]2CN[C@H](C(=O)O)C[C@H]2C1` (relative stereo) [Compound 16, (3SR,4aRS,6RS,8aRS)-6-[2-((N-Methanesulfonyl)carboxamido)ethyl]decahydroisoquinoline-3-carboxylic Acid], the IC50 was 80 µM on AMPA receptor [2] (setting [7]) and above 100 µM on NMDA receptor [5] (Table I, racemic). In experiment [3] (Table I, racemic), the “IC50 KA, receptor binding” value is above 100 µM.

Regarding `CC(Cc1nn[nH]n1)[C@H]1CC[C@H]2CN[C@H](C(=O)O)C[C@H]2C1` (stereo partly drawn) [Compound 18, (3SR,4aRS,6RS,8aRS)-6-[2-(1(2)H-Tetrazole-5-yl)-1-methylethyl]decahydroisoquinoline-3-carboxylic Acid], the IC50 on AMPA receptor [2] (setting [7]) is 3.37 µM; at AMPA receptor [2] (text summary of Table I, racemic, read-out: selectively displaced ^3 H-AMPA with IC50 values), below 15 µM; at NMDA receptor [5] (Table I, racemic) it was 43.1 µM. The “IC50 KA, receptor binding” value in experiment [3] (Table I, racemic) worked out at 28.2 µM.

With `O=CN(Cc1nnn[nH]1)[C@H]1CC[C@H]2CN[C@H](C(=O)O)C[C@@H]2C1` (racemic) [Compound 3, (3SR,4aRS,6SR,8aRS)-6-[N-(1(2)H-Tetrazole-5-yl)methylformamido]-decahydroisoquinoline-3-carboxylic Acid], the IC50 on AMPA receptor [2] (setting [7]) is 29.1 µM; at NMDA receptor [5] (Table I, racemic) it was above 100 µM. The “IC50 KA, receptor binding” value in experiment [3] (Table I, racemic) was above 100 µM.

Turning to `O=C(O)[C@@H]1C[C@H]2C[C@@H](CS(=O)(=O)c3nc[nH]n3)CC[C@H]2CN1` [Compound 26, (3S,4aR,6S,8aR)-6-[(1(2-4)H-1,2,4-Triazole-5-yl)sulfonylmethyl]decahydroisoquinoline-3-carboxylic Acid], the IC50 was 0.63 µM at AMPA receptor [2] (setting [8]) and above 100 µM on NMDA receptor [5] (Table II, enantiopure). In experiment [3] (Table II, enantiopure), the “IC50 KA, receptor binding” value is above 100 µM.

The record behind these values is patent publication US5399696A, “Isoquinolinyl compounds which are intermediates” (Eli Lilly and Company, priority 1993, dated 1995).
